In US20170231929A1, “METHOD FOR ENHANCING IMMUNE CELL FUNCTION AND METHOD FOR ASSESSING IMMUNE CELL MULTIFUNCTIONALITY” (NATIONAL UNIVERSITY CORPORATION OKAYAMA UNIVERSITY, priority 2014, published 2017):

Test system: CD8^+T cells
Experiment: Multifunctionality of CD8^+T cells of primary lung cancer patients (stage I) after metformin treatment of PBMC (flow cytometer)
Assay type: cell-based, human
Settings: for Decrease, IFNγ 1-cytokine-producing cell / Decrease, IFNγ/IL-2 2-cytokine-producing cell / Decrease, IFNγ/TNFα 2-cytokine-producing cell / Decrease, IFNγ/TNFα/IL2 3-cytokine-producing cell / Increase, IFNγ 1-cytokine-producing cell / Increase, IFNγ/IL-2 2-cytokine-producing cell / Increase, IFNγ/TNFα 2-cytokine-producing cell / Increase, IFNγ/TNFα/IL2 3-cytokine-producing cell / No Change, IFNγ 1-cytokine-producing cell / No Change, IFNγ/IL-2 2-cytokine-producing cell / No Change, IFNγ/TNFα 2-cytokine-producing cell / No Change, IFNγ/TNFα/IL2 3-cytokine-producing cell: Cancer Patients (stage I)
Experimental: 1. Peripheral blood was obtained from a test subject, and PBMC was separated by a density-gradient centrifugation using a lymphocyte-separating reagent Ficoll-Paque® (GE Healthcare). 3 mL of Ficoll-Paque® was dispensed in a 15-mL tube. 8 mL of the peripheral blood was gently placed on the reagent. At this time, care should be taken not to mix Ficoll-Paque® with the peripheral blood. Centrifugation was performed at 400 g for 30 minutes, thereby separating PBMC. 2. The separated PBMC was preserved in a −150° C. freezer or liquid nitrogen using Bambang Car cell preservation liquid by adjusting the cell number to 2.0×10^6 cell/tube. 3. In the test, the thawed PBMC was cultured for 1 to 10 hours in the presence or absence of […]. The culture was performed using a 24-well plate, and the cell number was adjusted to about 5.0×10^5 cell/well. 4. The cells were collected after 1 to 10 hours, washed with medium, and cultured in the presence of a cell activation reagent (potent nanomolar activator of protein kinase C (PMA, 50 ng/mL), ionomycin (1 μM)) for 6 hours, thereby non-specifically stimulating T cells. At this time, BD Gorgi Stop™ was added to keep the produced cytokines inside the cells. 5. The cells were isolated and washed twice with a cell-staining buffer. First, staining of CD8, PD-1, Tim-3, which are molecules expressed on the T cell surface, was performed. In the staining, a staining buffer was added in an amount of 50 μL per sample. The culture was performed at 4° C. for 30 minutes. 6. The cells were collected and washed twice with a cell-staining buffer. 500 μL of BD Cytofix/Cytoperm was added and cultured at 4° C. for 30 minutes. 7. The cells were collected and washed twice with BD Perm/Wash™. Staining of cytokines IL-2, TNFα, and IFNγ was performed. In the staining, BD Perm/Wash™ was added in an amount of 50 μL per sample. The culture was performed at 4° C. for 30 minutes. 8. The cells were collected and washed twice with BD Perm/Wash™, and 200 μL of BD Perm/Wash™ was added. 9. Analysis was performed using a FACSCanto™ II flow cytometer (Becton, Dickinson and Company).
Among the PBMC treated with PMA/ionomycin in the method shown in (2) above, first, a gate was applied to CD8^+T cells using a FACSCanto™ II flow cytometer (Becton, Dickinson and Company), and then […] were removed by FSC-A and FSC-H. Using parameters FSC-A and SSC-A, a gate was applied to a lymphocyte group, thereby analyzing expression of PD-1 and Tim-3. Further, intracellular cytokines IFNγ, TNFα, and IL-2 were stained, and multifunctionality of CD8^+T cells contained in the PBMC was analyzed (FIG. 1).
Each PBMC obtained from 31 primary lung cancer patients (stage I) was cultured for an hour in the same manner as in (4) in the presence or absence of metformin. After metformin was removed, each resulting PBMC was analyzed. In a representative example, the CD8^+T cells untreated with metformin were determined to be 0.92%, and the CD8^+T cells treated with metformin were determined to be 1.44% (FIG. 3). Accordingly, it was judged that, in comparison with healthy subjects, multifunctionality of CD8^+T cells was increased by a metformin treatment in many cancer patients.
Among the cancer patients treated as above, the ratios of CD8^+T cells producing three kinds of cytokines (IFNγ/TNFα/IL-2), CD8^+T cells producing two kinds of cytokines (IFNγ/TNFα or IFNγ/IL-2), CD8^+T cells producing one kind of cytokine (IFNγ) with respect to the entire CD8^+T cells were calculated according to the same analysis as in (4), and shown in Table 2. The calculation results were compared between the metformin-untreated group (control) and the metformin-treated group (metformin).
This Example analyzed test results of recovery of multifunctionality of CD8^+T cells by metformin in 10 healthy subjects and 31 cancer patients (stage I) based on the results obtained by the method in Example 1. […]

[1] = total CD8^+T cells, cancer patients (stage I)

CN(C)C(=N)N=C(N)N [metformin]
Decrease, IFNγ 1-cytokine-producing cell (PD-1+, Tim-3+, patients/total): 10/31 | Decrease, IFNγ/IL-2 2-cytokine-producing cell (PD-1+, Tim-3+, patients/total): 8/31 | Decrease, IFNγ/TNFα 2-cytokine-producing cell (PD-1+, Tim-3+, patients/total): 9/31 | Decrease, IFNγ/TNFα/IL2 3-cytokine-producing cell (PD-1+, Tim-3+, patients/total): 7/31 | Increase, IFNγ 1-cytokine-producing cell (PD-1+, Tim-3+, patients/total): 19/31 | Increase, IFNγ/IL-2 2-cytokine-producing cell (PD-1+, Tim-3+, patients/total): 9/31 | Increase, IFNγ/TNFα 2-cytokine-producing cell (PD-1+, Tim-3+, patients/total): 11/31 | Increase, IFNγ/TNFα/IL2 3-cytokine-producing cell (PD-1+, Tim-3+, patients/total): 11/31 | No Change, IFNγ 1-cytokine-producing cell (PD-1+, Tim-3+, patients/total): 2/31 | No Change, IFNγ/IL-2 2-cytokine-producing cell (PD-1+, Tim-3+, patients/total): 14/31 | No Change, IFNγ/TNFα 2-cytokine-producing cell (PD-1+, Tim-3+, patients/total): 11/31 | No Change, IFNγ/TNFα/IL2 3-cytokine-producing cell (PD-1+, Tim-3+, patients/total): 13/31 | Decrease, IFNγ 1-cytokine-producing cell (PD-1+, Tim-3−, patients/total): 10/31 | Decrease, IFNγ/IL-2 2-cytokine-producing cell (PD-1+, Tim-3−, patients/total): 12/31 | Decrease, IFNγ/TNFα 2-cytokine-producing cell (PD-1+, Tim-3−, patients/total): 10/31 | Decrease, IFNγ/TNFα/IL2 3-cytokine-producing cell (PD-1+, Tim-3−, patients/total): 10/31 | Increase, IFNγ 1-cytokine-producing cell (PD-1+, Tim-3−, patients/total): 11/31 | Increase, IFNγ/IL-2 2-cytokine-producing cell (PD-1+, Tim-3−, patients/total): 12/31 | Increase, IFNγ/TNFα 2-cytokine-producing cell (PD-1+, Tim-3−, patients/total): 10/31 | Increase, IFNγ/TNFα/IL2 3-cytokine-producing cell (PD-1+, Tim-3−, patients/total): 14/31 | No Change, IFNγ 1-cytokine-producing cell (PD-1+, Tim-3−, patients/total): 10/31 | No Change, IFNγ/IL-2 2-cytokine-producing cell (PD-1+, Tim-3−, patients/total): 7/31 | No Change, IFNγ/TNFα 2-cytokine-producing cell (PD-1+, Tim-3−, patients/total): 11/31 | No Change, IFNγ/TNFα/IL2 3-cytokine-producing cell (PD-1+, Tim-3−, patients/total): 7/31 | Decrease, IFNγ 1-cytokine-producing cell (PD-1−, Tim-3+, patients/total): 14/31 | Decrease, IFNγ/IL-2 2-cytokine-producing cell (PD-1−, Tim-3+, patients/total): 9/31 | Decrease, IFNγ/TNFα 2-cytokine-producing cell (PD-1−, Tim-3+, patients/total): 8/31 | Decrease, IFNγ/TNFα/IL2 3-cytokine-producing cell (PD-1−, Tim-3+, patients/total): 6/31 | Increase, IFNγ 1-cytokine-producing cell (PD-1−, Tim-3+, patients/total): 10/31 | Increase, IFNγ/IL-2 2-cytokine-producing cell (PD-1−, Tim-3+, patients/total): 13/31 | Increase, IFNγ/TNFα 2-cytokine-producing cell (PD-1−, Tim-3+, patients/total): 13/31 | Increase, IFNγ/TNFα/IL2 3-cytokine-producing cell (PD-1−, Tim-3+, patients/total): 12/31 | No Change, IFNγ 1-cytokine-producing cell (PD-1−, Tim-3+, patients/total): 7/31 | No Change, IFNγ/IL-2 2-cytokine-producing cell (PD-1−, Tim-3+, patients/total): 9/31 | No Change, IFNγ/TNFα 2-cytokine-producing cell (PD-1−, Tim-3+, patients/total): 10/31 | No Change, IFNγ/TNFα/IL2 3-cytokine-producing cell (PD-1−, Tim-3+, patients/total): 13/31 | Decrease, IFNγ 1-cytokine-producing cell (PD-1−, Tim-3−, patients/total): 16/31 | Decrease, IFNγ/IL-2 2-cytokine-producing cell (PD-1−, Tim-3−, patients/total): 17/31 | Decrease, IFNγ/TNFα 2-cytokine-producing cell (PD-1−, Tim-3−, patients/total): 14/31 | Decrease, IFNγ/TNFα/IL2 3-cytokine-producing cell (PD-1−, Tim-3−, patients/total): 14/31 | Increase, IFNγ 1-cytokine-producing cell (PD-1−, Tim-3−, patients/total): 9/31 | Increase, IFNγ/IL-2 2-cytokine-producing cell (PD-1−, Tim-3−, patients/total): 12/31 | Increase, IFNγ/TNFα 2-cytokine-producing cell (PD-1−, Tim-3−, patients/total): 13/31 | Increase, IFNγ/TNFα/IL2 3-cytokine-producing cell (PD-1−, Tim-3−, patients/total): 13/31 | No Change, IFNγ 1-cytokine-producing cell (PD-1−, Tim-3−, patients/total): 6/31 | No Change, IFNγ/IL-2 2-cytokine-producing cell (PD-1−, Tim-3−, patients/total): 2/31 | No Change, IFNγ/TNFα 2-cytokine-producing cell (PD-1−, Tim-3−, patients/total): 4/31 | No Change, IFNγ/TNFα/IL2 3-cytokine-producing cell (PD-1−, Tim-3−, patients/total): 4/31 | Decrease, IFNγ 1-cytokine-producing cell (Total CD8T, patients/total): 13/31 | Decrease, IFNγ/IL-2 2-cytokine-producing cell (Total CD8T, patients/total): 15/31 | Decrease, IFNγ/TNFα 2-cytokine-producing cell (Total CD8T, patients/total): 12/31 | Decrease, IFNγ/TNFα/IL2 3-cytokine-producing cell (Total CD8T, patients/total): 12/31 | Increase, IFNγ 1-cytokine-producing cell (Total CD8T, patients/total): 5/31 | Increase, IFNγ/IL-2 2-cytokine-producing cell (Total CD8T, patients/total): 13/31 | Increase, IFNγ/TNFα 2-cytokine-producing cell (Total CD8T, patients/total): 15/31 | Increase, IFNγ/TNFα/IL2 3-cytokine-producing cell (Total CD8T, patients/total): 14/31 | No Change, IFNγ 1-cytokine-producing cell (Total CD8T, patients/total): 13/31 | No Change, IFNγ/IL-2 2-cytokine-producing cell (Total CD8T, patients/total): 3/31 | No Change, IFNγ/TNFα 2-cytokine-producing cell (Total CD8T, patients/total): 4/31 | No Change, IFNγ/TNFα/IL2 3-cytokine-producing cell (Total CD8T, patients/total): 5/31 | Increase + No Change, IFNγ/TNFα/IL2, share of patients (Total CD8T, Patients (stage I)): 61.3% | Increase + No Change, IFNγ/TNFα/IL2 (Total CD8T, Patients (stage I), patients/total): 19/31 | multifunctionality of CD8^+T cells by a metformin treatment (many cancer patients, in comparison with healthy subjects): increased | CD8^+T cells capable of simultaneously producing IFNγ, TNFα and IL-2, treated with metformin (primary lung cancer patients (stage I), representative example, FIG. 3, untreated with metformin 0.92%): 1.44% | decrease in multifunctionality (three kinds of cytokines), share of patients [1]: 38.7% | increase in multifunctionality (three kinds of cytokines), share of patients [1]: 45.2%
